Measurements published in patent US20250025438A1, “Derivative of aspartic acid and use thereof in treatment of metabolic diseases such as hepatic fibrosis and non-alcoholic hepatitis” (SHENZHEN JINGTAI TECHNOLOGY CO., LTD., priority 2021, published 2025).
Where a name gives a salt, the structure may show the parent alone.

Experiments:
α-SMA [1] = test: Semi-activated LX2 cells, Western blot: α-SMA protein; format: cell-based; conditions: 50-400 μM, 48 hours, FIG. 2, vs 50 μM aspartic acid
[2] = test system: carbon tetrachloride-induced liver fibrosis; test: Carbon tetrachloride-induced liver fibrosis model in mice, Masson staining; format: in vivo, C57BL/6 wild-type mice; conditions: CCl4 mice
Procedure: Long-term intraperitoneal injection of carbon tetrachloride (CCl4) induced reversible liver fibrosis, which was often used to screen and evaluate anti-hepatic fibrosis drugs. C57BL/6 wild-type mice were randomly divided into control group, carbon tetrachloride group and treatment group. The treatments were as follows:
Mice in the carbon tetrachloride group: The animals were intraperitoneally injected with carbon tetrachloride in a total amount of 0.5 μL/g, diluted with corn oil to 10 μL/g, 3 times/week. After 4 weeks of modeling, the carbon tetrachloride group was randomly divided into groups, plus the negative control group: • (1) Mice in the negative control group: The animals were intraperitoneally injected with corn oil solution, 10 μL/g, 3 times/week; at the same time, 200 μL of drinking water was administered by gavage. • (2) Mice in the carbon tetrachloride group: The animals were intraperitoneally injected with carbon tetrachloride in a total amount of 0.5 μL/g, diluted with corn oil to 10 μL/g, 3 times/week; 200 μL of normal saline was administered by gavage. • (3) Mice in the aspartic acid group: The animals were intraperitoneally injected with carbon tetrachloride in a total amount of 0.5 μL/g, diluted with corn oil to 10 μL/g, 3 times/week; 30 mg/kg aspartic acid was administered by gavage. • (4) Mice in the treatment group: The animals were intraperitoneally injected with carbon tetrachloride in a total amount of 0.5 μL/g, diluted with corn oil to 10 μL/g, 3 times/week; different doses of the compounds of the present invention were administered by gavage.
The animals were treated for 4 weeks, and blood was collected from the eyeballs 48 hours after the last injection of carbon tetrachloride. About 1 mL of whole blood per animal was collected in an anticoagulant tube, and immediately placed on ice and allowed to stand for 1 hour. Centrifugation was performed at 4° C., 3000 rpm for 15 min. About 0.4 mL of the supernatant was taken and added into an EP tube, in which it should be carefully avoided to pipet the lower layer liquid, and then it was stored in a −80° C. refrigerator.
It should be noted to use new paraffin when renewed; • (5 Embedding: Melted paraffin (60° C.) was added into a small iron trough, the paraffin-soaked tissue was taken and placed therein, the embedding box at the side with label was buckled, and the melted paraffin was added again. It should be noted that air bubbles should be removed during the operation process; • (6 The paraffin-embedded tissue was placed on an ice table of an automatic embedding machine. After the paraffin solidified, it was placed in a −20° C. refrigerator for further cooling.
• (1 The wax block with embedded tissue was placed at the corresponding position of a microtome; • (2 The slice thickness was adjusted to the thickness required for the experiment. Generally, 3 to 4 μm should be used for slicing; • (3 6 to 8 Consecutive tissue sections were gently placed and fully stretched in a 55° C. water bath expander; • (4 The continuous tissue sections were gently separated by tweezers; • (5 A wax section that was completely stretched and had no wrinkles in the tissue was selected, and taken out with an adhesive slide so that the section was attached to the slide;
Masson staining is one of the classic and authoritative staining methods for collagen fiber staining. Collagen fibers appear […].

α-SMA [3] = test: In vitro efficacy in semi-activated LX2 cells, qPCR: α-SMA; format: cell-based; conditions: 48 hours, Q-PCR; for inhibition at 50 µM: read-out: α-SMA mRNA inhibition rate; for inhibition of the expression of α-SMA at the mRNA level: Table 2
Procedure, shortened: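 Compound at 50 µM is added to adherent LX2 stellate cells and left for 48 hours before total RNA is isolated. Transcript levels are then measured by SYBR Green real-time PCR on cDNA and expressed by relative quantification.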

[4] = 20 mg/kg/d by gavage, 4 weeks, vs untreated group and aspartic acid group (30 mg/kg/d), FIG. 6

SMILES | inhibitory effect on α-SMA protein as compared to ASP (α-SMA [1]) | collagen deposition in the mouse liver tissue (Masson) [2, 4] | inhibition at 50 µM (α-SMA [3]) [%] | inhibition of the expression of α-SMA at the mRNA level (α-SMA [3]) | collagen deposition in the mouse liver tissue (Masson) ([2]; 10 mg/kg/bid, 50 mg/kg/bid, 150 mg/kg/bid, vs untreated group, FIG. 7) | collagen deposition in the mouse liver tissue (Masson) ([2]; 25 mg/kg/d by gavage, 4 weeks, vs untreated group and aspartic acid group (30 mg/kg/d), FIG. 6) | collagen deposition in the mouse liver tissue (Masson) ([2]; 40 mg/kg/d by gavage, 4 weeks, vs untreated group and aspartic acid group (30 mg/kg/d), FIG. 6)
COC(=O)[C@@H](N)CC(=O)O [Compound 4] | stronger inhibitory effects | reduced | 25 to 50 | could inhibit | – | – | –
COC(=O)C[C@H](N)C(=O)O [Compound 6] | stronger inhibitory effects | – | 10 to 25 | could inhibit | decreased | reduced | –
N[C@@H](CCC(=O)O)C(=O)O [Compound 47] | stronger inhibitory effects | reduced | – | – | – | – | –
COC(=O)C[C@H](N)C(=O)OCOC(=O)[C@@H](N)CC(=O)OC [Compound 54, 4-dimethyl O′1,01-methylene (2S,2'S)-bis (2-aminosuccinate) hydrochloride] | – | – | – | could inhibit | – | – | reduced
